Source: patent publication US20210338782A1, “STORAGE STABLE SOMATOSTATIN-DOPAMINE CHIMERIC COMPOUNDS AND SALT FORMS THEREOF” (Cydan II, Inc., priority 2019, published 2021)
Counter-ions that a name gives are not always drawn.

Columns and labels:
Assay type in all cases: physicochemical
[1] = Solid state (thermolytic) stability of TBR-760 salt forms, open container, UPLC peak purity and appearance; conditions: for Purity, T = 2 wk / Purity, T = 4 wk / Purity, Control: UPLC peak purity; for Purity, Control / Appearance, Control: stored at -20° C.
Experimental: Each TBR-760 salt was further evaluated for thermolytic stability over time by setting up three different exposure conditions (25° C. at 60% relative humidity (RH); 40° C. at 75% RH; or 60° C. with open and closed container systems (open dish/closed dish). Approximately 50 mg of each salt form was weighed in a nitrogen-flushed glove box for use in the studies. All samples were stored at −20° C. in a good laboratory practice (GLP) freezer both before and after exposure to the indicated conditions.
The stability of each salt form was assessed by monitoring the post-exposure drug peak purity and by evaluating the post-exposure visual appearance of the salt. The samples were removed from the exposure conditions and allowed to equilibrate to ambient conditions for 15-20 mins. An appropriate amount of each sample was weighed for analysis and dissolved in diluent (deionized water containing 0.1% TFA) to obtain a stock concentration of 1 mg/mL. The stock solution was then diluted to 0.125 mg/mL in an HPLC vial using diluent and the samples were run on a Waters Acquity UPLC system using the parameters shown in Table 4.

[2] = Thermogravimetric analysis (TGA) of TBR-760 salt forms; conditions: ramp 5.0° C. per minute from 25 to 400° C.
Experimental: Thermogravimetric analyses (TGA) were performed on all TBR-760 salt forms to evaluate thermal stability of each salt form. Studies were performed using a TGA-Q500 thermogravimetric analyzer (TA Instruments). The weight of each compound was measured while the temperature was increased at a ramp rate of 5.0° C. per minute from 25 to 400° C. […] The weight loss may be indicative of loss of adsorbed moisture, entrained solvent or volatile impurities. Decomposition of the compound appears to start at about 234° C. (sulfate salt), 245° C. (chloride salt), 252° C. (tosylate salt), and 255° C. (mesylate salt). For the acetate salt, a further ˜5% loss of weight between 110° C. and 200° C. was observed, indicating loss of volatile acetate ions over that temperature range (FIG. 8).

[3] = Photostability of TBR-760 salt forms (ICH Q1B, visible and UV light), appearance and UPLC purity; conditions: for Purity, UV-exposed / Purity, Control / Purity, Dark Ctrl-UV / Purity, Dark Crtl-Light / Purity, Light-exposed / degradation upon exposure to visible or UV light, in words: UPLC; for Purity, UV-exposed / Appearance, UV-exposed: UV 200 watt hours/square meter; for Purity, UV-exposed / Purity, Light-exposed / Appearance, UV-exposed / Appearance, Light-exposed: clear sealed vial; for Purity, Control / Appearance, Control: control in sealed amber vial at -20° C.; for Purity, Dark Ctrl-UV / Appearance, Dark Ctrl-UV: dark control in UV chamber; for Purity, Dark Crtl-Light / Appearance, Dark Crtl-Light: dark control in visible light chamber; for Purity, Light-exposed / Appearance, Light-exposed: visible light 1.2 million lux hours; for Appearance, Dark Ctrl-UV / Appearance, Dark Crtl-Light: amber vial wrapped in aluminum foil; for degradation upon exposure to visible or UV light, in words: visible and UV light
Excerpt: In order to evaluate the light sensitivity and stability of TBR-760 chimeric peptide salts, all five salt forms were exposed to ultraviolet (UV) and visible light according to International Council for Harmonisation of Technical Requirements for Pharmaceuticals for Human Use (ICH) guideline Q1B for photostability testing. In brief, a Caron 6540-1 photostability chamber unit with separate UV and light chambers was used for the studies. Visible light exposure was 1.2 million lux hours and UV exposure was 200 watt hours/square meter.
Samples were placed in clear, sealed vials and stored in the appropriate chamber alongside dark controls in amber colored vials wrapped in aluminum foil. Control samples were stored in sealed amber vials at −20° C. The appearance of exposed samples was examined visually before being analyzed via UPLC.

[4] = 25° C. at 60% RH, open container
[5] = 40° C. at 75% RH, open container

Row | Structure (SMILES) | Appearance, T = 2 wk [1, 4] | Appearance, T = 4 wk [1, 4] | Appearance, T = 3 d [1, 4] | Appearance, T = 2 wk [1, 5] | Appearance, T = 4 wk [1, 5] | Appearance, T = 3 d [1, 5] | Appearance, T = 2 wk ([1]; 60° C., open dish) | Appearance, T = 4 wk ([1]; 60° C., open dish) | Appearance, T = 3 d ([1]; 60° C., open dish) | Purity, T = 2 wk [1, 4] | Purity, T = 4 wk [1, 4] | Purity, T = 2 wk [1, 5] | Purity, T = 4 wk [1, 5] | Purity, T = 2 wk ([1]; 60° C., open dish) | Purity, T = 4 wk ([1]; 60° C., open dish) | Purity, Control [1] | Appearance, Control [1] | Appearance, Control [3] | Appearance, Dark Ctrl-UV [3] | Appearance, Dark Crtl-Light [3] | also measured
1 | CCCN1C[C@H](CSCC(=O)NCCCC[C@@H](NC(=O)CSC[C@@H]2C[C@@H]3c4cccc5[nH]cc(c45)C[C@H]3N(CCC)C2)C(=O)N[C@H]2CSSC[C@@H](C(=O)N[C@H](C(N)=O)[C@@H](C)O)NC(=O)[C@H](CC)NC(=O)[C@H](CCCCN)NC(=O)[C@@H](Cc3c[nH]c4ccccc34)NC(=O)[C@H](Cc3ccc(O)cc3)NC2=O)C[C@@H]2c3cccc4[nH]cc(c34)C[C@H]21 [TBR-760 mesylate, Dop2-D-Lys(Dop2)-cyclo[Cys-Tyr-D-Trp-Lys-Abu-Cys]-Thr-NH2] | White | White | White | White | White | White | White | White | White | 98.14 | 97.77 | 97.49 | 97.35 | 97.56 | 97.17 | 98.39 | White | white | white | white | stability compared with the other salt forms ([1]; 40° C. at 75% RH and 60° C., 2 and 4 weeks): significantly more stable; TGA start of decomposition ([2]; listed as mesylate salt): ~255 °C; Purity, UV-exposed [3]: 96.67; Purity, Control [3]: 98.39; Purity, Dark Ctrl-UV [3]: 98.35; Purity, Dark Crtl-Light [3]: 98.46; Purity, Light-exposed [3]: 95.3; Appearance, UV-exposed ([3]; listed as Mesylate): off-white; Appearance, UV-exposed ([3]; listed as mesylate): white to off-white; degradation upon exposure to visible or UV light, in words [3]: more resistant to degradation than TBR-760 acetate; Appearance, Light-exposed ([3]; listed as Mesylate): off-white; Appearance, Light-exposed ([3]; listed as mesylate): white to off-white
2 | CCCN1C[C@H](CSCC(=O)NCCCC[C@@H](NC(=O)CSC[C@@H]2C[C@@H]3c4cccc5[nH]cc(c45)C[C@H]3N(CCC)C2)C(=O)N[C@H]2CSSC[C@@H](C(=O)N[C@H](C(N)=O)[C@@H](C)O)NC(=O)[C@H](CC)NC(=O)[C@H](CCCCN)NC(=O)[C@@H](Cc3c[nH]c4ccccc34)NC(=O)[C@H](Cc3ccc(O)cc3)NC2=O)C[C@@H]2c3cccc4[nH]cc(c34)C[C@H]21 [TBR-760 sulfate, Dop2-D-Lys(Dop2)-cyclo[Cys-Tyr-D-Trp-Lys-Abu-Cys]-Thr-NH2] | White | White | White | White | White | White | White | White | White | 97.34 | 97.75 | 97.08 | 97.3 | 93.7 | 92.01 | 98.04 | White | white | white | white | additional degradants in chromatogram versus control ([1]; two weeks at 60° C., open dish, UPLC, listed as sulfate salt): more than 10; TGA start of decomposition ([2]; listed as sulfate salt): about 234 °C; Purity, UV-exposed ([3]; listed as Sulphate): 96.24; Purity, Control ([3]; listed as Sulphate): 98.04; Purity, Dark Ctrl-UV ([3]; listed as Sulphate): 98.17; Purity, Dark Crtl-Light ([3]; listed as Sulphate): 98.19; Purity, Light-exposed ([3]; listed as Sulphate): 94.82; Appearance, UV-exposed [3]: white to off-white; Appearance, UV-exposed ([3]; listed as Sulphate): off-white; degradation upon exposure to visible or UV light, in words [3]: more resistant to degradation than TBR-760 acetate; Appearance, Light-exposed [3]: no visible discoloration; Appearance, Light-exposed ([3]; listed as Sulphate): white
